Laboratory results from patent US7442383B2, “Use of xenon for the control of neurological deficits associated with cardiopulmonary bypass” (Protexeon Limited, priority 2002, dated 2008).

Legend:
[1] = test system: rat CPB model; experiment: General behavioural changes after emergence from anesthesia; assay type: in vivo; details: MK801 0.15 mg/kg i.v.
Method: (§1) After complete of all surgical procedures as described as above, rats were randomly divided into one of four groups. […] CPB group: rats (n=10) were subjected to 60 min of non-pulsatile CPB with a membrane oxygenator receiving a mixture of 30% O2 and 65% N2. CPB+MK801 group: rats (n=10) received MK801 (0.15 mg/kg, i.v.) 15 min prior to 60 min of CPB with similar concentrations of gases as in group 2. The dose of MK801 was chosen from pilot studies, in which its side effect can be kept at minmal level. CPB+Xenon group: rats (n=10) underwent 60 min of CPB with a membrane oxygenator receiving a mixture of 30% O2 and 60% xenon.
All animals were able to drink and to eat after emergence.

[2] = test system: rat CPB model; experiment: Morris water maze neurocognitive testing after CPB; assay type: in vivo; details: 10 postoperative days; speeds 4.7 to 6.2 inch/sec
Description: The methodology of the CPB model used in the current study has been previously reported (Anesthesiology 2001, 95:1485-91). Briefly, anesthesia was induced in male Sprague-Dawley rats (12-14 weeks, 350-380 gm; Harlan, Indianapolis, Ind.) with 5% isoflurane in oxygen-enriched air in a plastic box. Following orotracheal intubation with a 14-gauge cannula, the lungs were mechanically ventilated (40% O2/balance N2) to maintain a PaCO2 of 36-42 mmHg. During surgical preparation, anesthesia was maintained with 2.0-2.5% isoflurane and the rectal and pericranial temperatures were monitored and servo-controlled at 37.5±0.1° C. (YSI 400 series thermistor and 73ATA Indicating controller; YSI, Yellow Springs, Ohio) with a heating blanket and convective forced-air heating system. […]
The CPB circuit (FIG. 2) consisted of a venous reservoir, a peristaltic pump and a membrane oxygenator, all of which were connected via 1.6 mm internal diameter silicone tubing (Tygon®; Cole-Parmer Instrument Co., Vernon Hills, Ill.). […] The venous oxygen saturation from the venous return line was measured continuously using an Oximetrix® Monitor and Opticath® Catheter (Abbot Laboratories, North Chicago, Ill.). Arterial blood gases were performed using a IL 1306 blood gas analyzer (Instrument Laboratories, Inc., Lexington, Mass.) with hemoglobin determined using an OSM3 Hemoximeter® (Radiometer Inc., Copenhagen, Denmark). […]

[3] = test system: rat CPB model; experiment: Standardized functional neurologic (neuromotor) testing after CPB; assay type: in vivo; details: for neurologic outcome, difference among groups: 12th postoperative day
Description: The methodology of the CPB model used in the current study has been previously reported (Anesthesiology 2001, 95:1485-91). Briefly, anesthesia was induced in male Sprague-Dawley rats (12-14 weeks, 350-380 gm; Harlan, Indianapolis, Ind.) with 5% isoflurane in oxygen-enriched air in a plastic box. Following orotracheal intubation with a 14-gauge cannula, the lungs were mechanically ventilated (40% O2/balance N2) to maintain a PaCO2 of 36-42 mmHg. During surgical preparation, anesthesia was maintained with 2.0-2.5% isoflurane and the rectal and pericranial temperatures were monitored and servo-controlled at 37.5±0.1° C. (YSI 400 series thermistor and 73ATA Indicating controller; YSI, Yellow Springs, Ohio) with a heating blanket and convective forced-air heating system. The superficial caudal epigastric artery, a branch of a femoral artery, was cannulated with PE-10 tubing for monitoring mean arterial pressure (MAP). During cardiopulmonary bypass (CPB) rats were anesthetized with fentanyl (30 μg/kg, i.v.), midazolam (0.4 mg/kg, i.v.) and atracurium (0.5 mg/kg, i.v.) as a bolus of injection and followed by a continuous infusion of the mixture of three with a syringe pump (2.5 μg/kg/min for fentanyl, 0.03 mg/kg/min for midazolam and 0.08 mg/kg/min for atracurium). Pilot studies had been confirmed that with this anesthetic regimen, the animals had enough depth of anesthesia during CPB.
The CPB circuit (FIG. 2) consisted of a venous reservoir, a peristaltic pump and a membrane oxygenator, all of which were connected via 1.6 mm internal diameter silicone tubing (Tygon®; Cole-Parmer Instrument Co., Vernon Hills, Ill.). The CPB circuit was primed with approximately 40 ml of whole blood obtained prior to the start of the experiment from two heparinized (100IU/rat, i.v.) donor rats (275-320 gm) which were exsanguinated under isoflurane anesthesia. The drained blood traversed a warmed venous reservoir (jacketed with circulating water from a heat pump) to a peristaltic pump (Masterflex®; Cole-Parmer Instrument Co., Vernon Hills, Ill.) to a membrane oxygenator (a modified Cobe Micro® neonatal oxygenator with a surface area of 0.33 m^2; Cobe Cardiovascular, Inc., Arvada, Colo.). A closed-circuit gas delivery system fed the appropriate gas into the oxygenator after which blood was inflsed back into the rat. An in-line flow probe (2N806 flow probe and T208 volume flowmeter; Transonics Systems, Inc., Ithaca, N.Y.) was used to continuously measure CPB flow. Arterial line inflow temperature was maintained at 37.5° C. using a circulating water bath system. The venous oxygen saturation from the venous return line was measured continuously using an Oximetrix® Monitor and Opticath® Catheter (Abbot Laboratories, North Chicago, Ill.). Arterial blood gases were performed using a IL 1306 blood gas analyzer (Instrument Laboratories, Inc., Lexington, Mass.) with hemoglobin determined using an OSM3 Hemoximeter® (Radiometer Inc., Copenhagen, Denmark).
as §1, with “xenon. […]” for “xenon.”

[4] = test system: mouse neuronal/glial co-culture; experiment: LDH release from neuronal/glial co-culture, temperature variation study; assay type: cell-based; details: xenon concentration (% atm)
Method: The effects of xenon as a neuroprotectant were investigated at normal body temperature (37° C.) and at a lower temperature (33° C.), for example, as may pertain during CPB. The study was based on measuring LDH release from a mouse neuronal/glial co-culture in accordance with the method described in WO 01/08692 (in the name of Imperial College of Science, Technology and Medicine).

[5] = 1st postoperative day, CPB group 5.2±1.5, sham 7.6±0.8
[6] = 3rd postoperative day, CPB group 5.8±1.8, sham 8.3±0.7

Row | SMILES | duration of behavioural disturbances [1] | general behavioural changes [1] | swimming speeds, difference among groups [2] | neurologic outcome (functional neurologic score, zero to nine scale, best score=9) [3, 5] | neurologic outcome (functional neurologic score, zero to nine scale, best score=9) [3, 6] | neurologic outcome, difference among groups [3] | EC50 for reduction of LDH release ([4]; 33° C.) | EC50 for reduction of LDH release ([4]; 37° C.)
1 | C[C@]12N[C@H](Cc3ccccc31)c1ccccc12 [MK801] | 1 to 2 h | hyperactivity, head weaving and related disturbances of motor coordination | no significant differences | 6.2±1.4 | 7.4±1.8 | no difference | – | –
2 | [Xe] [xenon] | – | – | no significant differences | 8.3±0.5 | 8.9±0.2 | no difference | 11.5+/−2.0% | 35.9+/−2.2%
